Measured values reported in ChEMBL document CHEMBL3745618, “Identification of Non-nucleoside Human Ribonucleotide Reductase Modulators” (J Med Chem, 2015).
Non-standard residues stand in square brackets, D forms with d. Residues, ends and D or L forms follow the SMILES beside them. Sar = CNCC(=O)O

Tests used:
[1] = test system: MDA-MB-231; assay: Growth inhibition of human MDA-MB-231 cells assessed as 1-relative growth at 10 uM after 3 days by DNA dye binding assay; type: functional
[2] = test system: MDA-MB-231; assay: Growth inhibition of human MDA-MB-231 cells assessed as 1-relative growth at 1 uM after 3 days by DNA dye binding assay; type: functional
[3] = Growth inhibition of human HCT116 cells assessed as 1-relative growth at 10 uM after 3 days by DNA dye binding assay; type: functional, HCT-116
[4] = Growth inhibition of human HCT116 cells assessed as 1-relative growth at 1 uM after 3 days by DNA dye binding assay; type: functional, HCT-116
[5] = test system: MDA-MB-231; assay: Potentiation of gemcitabine-induced cytotoxicity against human MDA-MB-231 assessed as effective dose of gemcitabine at 2.5 uM after 72 hrs MTT assay (reference value: 0.92 uM); type: functional
[6] = molecular target: T1, Ribonucleoside-diphosphate reductase large subunit (Homo sapiens, UniProt P23921); assay: Inhibition of human ribonucleotide reductase M1 subunit expressed in Escherichia coli BL21 (DE3) using 14C-ADP as substrate by liquid scintillation counting analysis
T1 sequence (P23921 whole entry): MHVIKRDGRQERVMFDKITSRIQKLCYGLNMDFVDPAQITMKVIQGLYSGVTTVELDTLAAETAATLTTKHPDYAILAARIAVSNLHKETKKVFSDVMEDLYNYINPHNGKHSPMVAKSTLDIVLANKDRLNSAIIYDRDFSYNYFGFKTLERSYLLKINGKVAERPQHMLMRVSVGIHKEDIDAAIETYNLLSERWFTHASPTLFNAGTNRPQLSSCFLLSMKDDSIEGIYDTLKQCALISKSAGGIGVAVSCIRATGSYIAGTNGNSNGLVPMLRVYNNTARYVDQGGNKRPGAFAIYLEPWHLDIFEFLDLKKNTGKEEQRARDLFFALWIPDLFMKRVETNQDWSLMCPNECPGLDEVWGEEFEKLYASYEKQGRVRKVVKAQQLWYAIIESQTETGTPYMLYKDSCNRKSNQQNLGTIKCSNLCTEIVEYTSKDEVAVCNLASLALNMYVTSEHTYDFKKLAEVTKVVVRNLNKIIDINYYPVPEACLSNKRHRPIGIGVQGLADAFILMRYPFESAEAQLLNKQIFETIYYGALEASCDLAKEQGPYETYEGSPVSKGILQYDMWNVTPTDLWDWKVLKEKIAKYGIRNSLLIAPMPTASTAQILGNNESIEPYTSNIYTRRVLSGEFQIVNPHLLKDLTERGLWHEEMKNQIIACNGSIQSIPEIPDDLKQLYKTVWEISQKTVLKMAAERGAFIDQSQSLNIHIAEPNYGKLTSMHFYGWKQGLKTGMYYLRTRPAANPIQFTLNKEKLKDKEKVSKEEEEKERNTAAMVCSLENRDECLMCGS

Row | Compound | Activity [1] | Activity [2] | Activity [3] | Activity [4] | ED [5] [µM] | IC50 [6] [µM]
1 | CCCCCCCCCCCCCCCC(=O)N[C@@H](CCCCN)C(=O)N[C@@H](CCCCN)C(=O)OC | -0.089 | -0.219 | -0.089 | – | – | –
2 | CC(C)(NC(=O)CN1C(=O)c2ccccc2C1=O)C(=O)NCCCC[C@H](NC(=O)CC(O)(C(F)(F)F)C(F)(F)F)C(=O)O | 0.608 | 0.057 | – | 0.057 | – | –
3 | CCCOc1ccc(C(=O)OCCN(CC)CC)cc1NS(=O)(=O)/C=C/c1ccccc1 | 0.043 | -0.033 | 0.043 | -0.033 | – | –
4 | CCOC(=O)C(NC(=O)CN[C@H]1CCCc2sccc21)C(=O)OCC | 0.531 | -0.199 | – | – | – | –
5 | CCCCCCCCCCCCCCNC(=O)[C@@H](N)CCN | 0.69 | 0.072 | 0.69 | 0.072 | – | –
6 | CCOC(=O)C[C@@H](CC(=O)NCCN[C@H](C)c1ccc(O)c(C(=O)OC)c1)OC(C)=O | 0.096 | 0.098 | 0.096 | 0.098 | – | –
7 | CCC(C)(C)c1ccc(OCCCCNC(=O)c2cc(Oc3ccc([N+](=O)[O-])cc3)c3ccccc3c2O)c(C(C)(C)CC)c1 | 0.398 | 0.038 | – | 0.038 | – | –
8 | CC(NCCCCCO)c1cc(OCc2ccccc2)cc(OCc2ccccc2)c1 (stereo unspecified) | 0.036 | -0.076 | 0.036 | -0.076 | – | –
9 | OC(COc1ccc(OCC(O)CN2CCN(C3c4ccccc4-c4ccccc43)CC2)cc1)CN1CCN(C2c3ccccc3-c3ccccc32)CC1 (stereo unspecified) | 0.88 | -0.396 | 0.88 | – | 0.1 | –
10 | CNCC(=O)N[C@@H](CCCNC(=N)N)C(=O)N[C@H](C(=O)N[C@@H](Cc1ccc(O)cc1)C(=O)N[C@H](C(=O)N[C@@H](Cc1cnc[nH]1)C(=O)O)C(C)C)C(C)C (H-[Sar]RVYVH-OH) | 0.158 | 0.108 | 0.158 | 0.108 | – | –
11 | NC(=O)NO [HYDROXYUREA] | – | – | – | – | – | 997
